Results published in patent US20040214782A1, “Treatment or prevention of coccidiosis” (priority 1999, published 2004).

What was measured:
[1] = test system: Eimeria culture (93% E bovis, 4% E. auburnenis and 3% E. zuernii); assay: Example 2: prevention of coccidiosis in Eimeria challenged calves, treated day 10 post-challenge; assay type: in vivo; settings: for clinical responses compared to saline treated animals: conclusion of Example 2; for oocyst shedding compared with the saline controls: days 19-28 post-infection; for oocyst shedding compared with the saline controls / mean daily attitude scores compared to the saline controls / mean daily fecal consistency scores compared with the saline treated calves / mean daily hydration scores compared to the saline treated calves: tilmicosin 10 mg/kg SC once, amprolium 10 mg/kg oral 5 days; for calves that died due to coccidiosis: deaths on day 23 and day 28 post-infection; for mean daily attitude scores compared to the saline controls / mean daily fecal consistency scores compared with the saline treated calves: p≦0.05; for Mortality Rates: 10 calves, 28 day study
Source text: Administration of amprolium was compared with tilmicosin, a commercially available macrolide antibiotic, in the prevention of coccidiosis in Eimeria challenged calves.
Sixty naive calves were housed in five holding pens (12 animals/pen). Calves were held 7 days prior to challenge in order to acclimate to the facility. On days −6, −4, and −2 pre-challenge fecal samples were obtained for semi-quantitative oocyst counts. On day −4 pre-challenge, oocysts were speciated if present. On day 0 calves were inoculated orally with the Eimeria culture. Temperatures were determined and recorded at approximately the same time each day for the duration of the study. Attitude, hydration and fecal consistency scores were evaluated daily. Post-challenge, fecal samples were collected on days 2, 4, 6, 8 and 10. Oocysts were speciated on day 10 post-challenge.
On day 10 post-challenge, each of fifty animals was randomly allotted to one of five treatment groups. Agents were either administered subcutaneously in the pre-scapular region of the neck or drench dosed orally.
Post-treatment, fecal samples were taken for semi-quantitative analysis of the shedding of coccidia oocysts on days 12, 14, 16 and 18. Beginning on day 19 and continuing through day 28, daily fecal samples were evaluated for semi-quantitative counts. Speciation of shed oocysts was performed on days 19-21, 23, 26 and 28.
Calves dying during the course of the study or euthanized due to a moribund condition associated with clinical coccidiosis were considered mortalities. Mortalities were necropsied and gross findings were recorded. At study termination (day 28), all remaining animals were weighed, euthanized, and post mortem examinations conducted.
Description of Disease Outbreak—Calves were inoculated orally with 2 ml of a coccidia challenge containing 125,000 sporulated oocysts with a species percent count of 93% E bovis, 4% E. auburnenis and 3% E. zuernii coccidia oocysts. At 19 days post-challenge, oocyst shedding was detected.

[2] = test system: bovine coccidia (Eimeria bovis ~90% and Eimeria auburnenis ~10%); assay: Example 1: coccidiosis in Eimeria challenged calves, treated once clinical disease and oocyst shedding had begun; assay type: in vivo; settings: for Mortality Rates: 8 calves, 21 day study; for mean daily attitude scores compared to the saline controls / mean daily fecal consistency scores compared to the saline treated calves / number of animals that ceased oocyst shedding compared to the saline treated calves: amprolium oral SIDX5; for calves that died due to coccidiosis: deaths within 24 hours of dosing; for number of animals that ceased oocyst shedding compared to the saline treated calves: from day 6 post-dosing, Formula II 5 and 2.5 mg/kg
Source text: Administration of an azalide macrolide antibiotic according to the invention was compared with administration of amprolium, a commercially available agent, and saline control solution, in preventing full development of coccidiosis in Eimeria challenged calves.
Eighty naive calves weighing approximately 110-125 kg were housed in twenty holding pens (4 animals/pen) 16 days prior to study initiation. […] The calves were acclimated in order to facilitate coccidial exposure and allow time for clinical signs to develop. On day 14, with no signs of naturally occurring coccidiosis in the calves, each calf was challenged orally with a mixed culture of bovine coccidia (Eimeria bovis˜90% and Eimeria auburnenis ˜10%). Calves were each also challenged orally with 1.25×10^7 oocysts and observed for signs of clinical disease. On day 23 post-challenge, calves began to show signs of clinical disease and fecal samples were taken to determine oocyst shedding.
Calves were randomly allotted to one of six treatment groups. They were weighed at allotment and treatments administered subcutaneously in the pre-scapular region of the neck. Amprolium was administered by drench dosing (SIDX5) beginning on the day of allotment.
Rectal temperatures were determined and recorded at approximately the same time each day for the 21 day duration of the study. Attitude, hydration and fecal consistency scores were evaluated daily. Daily fecal samples were taken for qualitative analysis of the shedding of oocysts. Mortalities were necropsied and gross findings were recorded.
At termination of the experiment, surviving animals were weighed, euthanized, and post-mortem examinations conducted.

[3] = Formula II 5 and 2.5 mg/kg SC once, p>0.05
[4] = amprolium (Corid 20% soluble powder) oral drench SIDX5

SMILES	21 day average daily weight gain relative to saline [1]	clinical responses compared to saline treated animals [1]	oocyst shedding compared with the saline controls [1]	calves that died due to coccidiosis [1]	mean daily attitude scores compared to the saline controls [1]	mean daily fecal consistency scores compared with the saline treated calves [1]	mean daily hydration scores compared to the saline treated calves [1]	mean daily attitude scores compared to the saline controls [2, 3]	mean daily fecal consistency scores compared to the saline treated calves [2, 3]	clinical responses (clinical scores, weight gain and oocyst shedding) compared to the saline control group ([2]; conclusion of Example 1)	calves that died due to coccidiosis ([2]; azalide at 5 and 2.5 mg/kg)	number of animals that ceased oocyst shedding compared to the saline treated calves ([2]; p>0.05)	also measured
CC[C@H]1OC(=O)C[C@@H](O)[C@H](C)[C@@H](O[C@@H]2O[C@H](C)[C@@H](O)[C@H](N(C)C)[C@H]2O)[C@@H](CCN2C[C@H](C)C[C@H](C)C2)C[C@@H](C)C(=O)/C=C/C(C)=C/[C@@H]1CO[C@@H]1O[C@H](C)[C@@H](O)[C@@H](OC)[C@H]1OC [Tilmicosin, tilmicosin]	responded similarly	improved clinical responses	decreased oocyst shedding	Two animals died	significant reductions	statistically significant reductions	reductions	–	–	–	–	–	21 Day Average Daily Gain ([1]; tilmicosin 10 mg/kg SIDX1, SC): 0.21 kg; Mortality Rates ([1]; tilmicosin 10 mg/kg SIDX1, SC): 2/10 (20%)
CCCN(C)C[C@]1(O)[C@H](C)O[C@@H](O[C@H]2[C@H](C)[C@@H](O[C@@H]3O[C@H](C)C[C@H](N(C)C)[C@H]3O)[C@@](C)(O)C[C@@H](C)CN[C@H](C)[C@@H](O)[C@](C)(O)[C@@H](CC)OC(=O)[C@@H]2C)C[C@@]1(C)OC [Compound of Formula II]	–	–	–	–	–	–	–	significant reductions	statistically significant reductions	improved clinical responses	no mortalities	significant increase	21 Day Average Daily Gain ([2]; 2.5 mg/kg, SIDX1, SC): 1.03 kg; Proportion of infected calves that ceased oocyst shedding 6 days post-treatment ([2]; 2.5 mg/kg, SIDX1, SC): 7/8 (88%); Mortality Rates ([2]; 2.5 mg/kg, SIDX1, SC): 0/8 (0%); 21 Day Average Daily Gain ([2]; 5 mg/kg, SIDX1, SC): 0.79 kg; Proportion of infected calves that ceased oocyst shedding 6 days post-treatment ([2]; 5 mg/kg, SIDX1, SC): 7/8 (88%); Mortality Rates ([2]; 5 mg/kg, SIDX1, SC): 0/8 (0%); mean daily hydration scores compared to the saline treated calves [2, 3]: statistically significant reductions; 21 day weight gain compared to the saline controls ([2]; azalide at 5 and 2.5 mg/kg): Numerical increases in weight gain; efficacy relative to amprolium ([2]; conclusion of Example 1, less complicated dosing regimen): comparable to that of amprolium
CCCc1ncc(C[n+]2ccccc2C)c(N)n1 [Amprolium, amprolium]	Numerical increases in weight gain	improved clinical responses	decreased oocyst shedding	One animal	significant reductions	statistically significant reductions	reductions	significant reductions	statistically significant reductions	improved clinical responses	one	significant increase	21 Day Average Daily Gain ([1]; amprolium 10 mg/kg, 5 days drench dosing): 0.60 kg; Mortality Rates ([1]; amprolium (Corid 9.6% Oral Solution) 10 mg/kg, 5 days drench dosing): 1/10 (10%); 21 Day Average Daily Gain [2, 4]: 0.75 kg; Proportion of infected calves that ceased oocyst shedding 6 days post-treatment [2, 4]: 7/7 (100%); Mortality Rates [2, 4]: 1/8 (13%)
